Assay results published in US12187814B1, “Stapled antimicrobial peptide” (KING SAUD UNIVERSITY, priority 2024, dated 2025).
In brackets after ≈: the same amount, converted by molar mass. Read-outs that look alike come from different tables or passages of the source. Bridge positions count the residues as written; N and C are the ends. Square brackets hold non-standard residues; d marks the D form. Peptide text beside a SMILES is read from it. S5 = C=CCCC[C@](C)(N)C(=O)O

Experiments:
Staphylococcus aureus [1] = experiment: Agar diffusion test (modified Kirby-Bauer), zone of inhibition; assay type: cell-based; conditions: 30 μl per well, sAMP1 100 μg/ml, Kanamycin 50 μg/ml, 24 hours
Description: (§1) The agar diffusion method was used to examine the synthesized AMP's antibacterial activity. Pure colonies of Staphylococcus aureus and MRSA were used for antibacterial susceptibility testing according to Clinical Laboratory Standards Institute (CLSI) 2021 guideline) by using a modified Kirby-Bauer disk diffusion technique (Humphries, R. et al, “Overview of Changes to the Clinical and Laboratory Standards Institute Performance Standards for Antimicrobial Susceptibility Testing”, M100, 31st Edition, J. Clin. Microbiol. 2021 Nov. 18; 59 (12): e0021321). In brief, homogeneous colonies were chosen from each microbial strain and grown on Mullar Hilton broth at log phase. 0.5 McFarland standard culture was used to spread on to the Mullar Hilton agar plates. Freshly prepared (30 μl each) of Kanamycin 50 μg/ml and sAMP1 100 μg/ml was poured into 4 mm diameter well, blank well with an equivalent amount of saline served as a […] control. The plates were incubated for 24 hours, and the diameter of the inhibition zone was measured to determine susceptibility or resistance. The full analysis was carried out three times.

Staphylococcus aureus [2] = experiment: microbe, parasite or virus in culture
MRSA [3] = experiment: Agar diffusion test (modified Kirby-Bauer), zone of inhibition; assay type: cell-based, Staphylococcus aureus; conditions: 30 μl per well, sAMP1 100 μg/ml, Kanamycin 50 μg/ml, 24 hours
Description: as §1

MRSA [4] = experiment: microbe, parasite or virus in culture; conditions: Staphylococcus aureus
MRSA [5] = test system: MRSA
[6] = test system: MCF-7 breast cancer cells
Description: Cytotoxicity & MTT Testing
(§2) Cell line MCF-7 and A549 cells were cultured under CO2 (5%) at 37° C. using Dulbecco's Modified Eagle's Medium (DMEM), accompanied with 1% mixture of “Penicillin-Streptomycin”, 10% Fetal Bovine Serum (FBS) and 1% L-Glutamine.

Description for A549 lung cancer cells: Cytotoxicity & MTT Testing
as §2

MIC (Staphylococcus aureus [2])	MIC (MRSA [4])	IC50 cell proliferation (MTT) (A549 lung cancer cells; 24 h)	MIC 96-well plate result (growth), replicates 1-3 (MRSA [5]; sAMP1 1.5625 μg/ml (row G))	MIC 96-well plate result (growth), replicates 1-3 (MRSA [5]; sAMP1 3.125 μg/ml (row F))	MIC 96-well plate result (growth), replicates 1-3 (MRSA [5]; sAMP1 6.25 μg/ml (row E))	MIC 96-well plate result (growth), replicates 1-3 (MRSA [5]; sAMP1 12.5 μg/ml (row D))	IC50 cell proliferation (MTT) ([6]; 24 h)	SMILES	zone of inhibition at 50 µg/mL (Staphylococcus aureus [1]; read-out: Zone of Inhibition (mm), Mean ± SD, n = 3)	zone of inhibition at 50 µg/mL (MRSA [3]; Staphylococcus aureus, read-out: Zone of Inhibition (mm), Mean ± SD, n = 3)	Zone of Inhibition (mm), Mean ± SD, n = 3 (Staphylococcus aureus [1])	Zone of Inhibition (mm), Mean ± SD, n = 3 (MRSA [3])	anti-cell proliferation (MTT assay) (A549 lung cancer cells; A549 cells)	effect on proliferation (A549 lung cancer cells; A549 cells, 25 μg/ml)	anti-cell proliferation (MTT assay) ([6]; MCF-7 cells)	effect on proliferation ([6]; MCF-7 cells, 25 μg/ml)
3.12 µg/mL (≈ 6.45 µM)	3.12 µg/mL (≈ 6.45 µM)	–	–	–	–	–	–	NC[C@H]1O[C@H](O[C@H]2[C@H](O)[C@@H](O[C@H]3O[C@H](CO)[C@@H](O)[C@H](N)[C@H]3O)[C@H](N)C[C@@H]2N)[C@H](O)[C@@H](O)[C@@H]1O [Kanamycin, reference compound]	19.1 ± 1.38 mm	21.6 ± 2.17 mm	–	–	–	–	–	–
–	–	54.22 µg/mL (≈ 25.5 µM)	Growth	Growth	Growth	Growth	35.82 µg/mL (≈ 16.8 µM)	CC[C@H](C)[C@H](NC(=O)[C@H](CCCNC(=N)N)NC(=O)[C@H](CCCCN)NC(=O)[C@]1(C)CCCC=CCCC[C@](C)(NC(=O)[C@H](CCCCN)NC(=O)[C@H](CCC(=O)O)NC(=O)[C@H](CCCCN)NC(=O)[C@H](CO)NC(=O)[C@H](CCCCN)NC(=O)[C@H](CCCNC(=N)N)NC(=O)[C@H](Cc2ccccc2)NC(=O)[C@@H](N)Cc2ccccc2)C(=O)NCC(=O)N[C@@H](CCCCN)C(=O)N[C@@H](CCC(=O)O)C(=O)N1)C(=O)N[C@H](C(N)=O)C(C)C [sAMP1, FFRKSKEK-S5-GKE-S5-KRIV] (H-FFRKSKEK[S5]GKE[S5]KRIV-NH2; staple 9-13; N-terminus assumed)	–	–	22.52±2.15 mm	25.31±1.53 mm	dose-dependent anti-cell proliferation	significantly reduced the proliferation	dose-dependent anti-cell proliferation	significantly reduced the proliferation
